Reference: PubChem BioAssay (NCI)
“And” between values parts separate entries of the source, which are not always exact repeats. Identical values can stand only once.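 Each compound was tested at five concentrations against cells in 96-well plates for 48 hours. The concentration for 50% growth inhibition is given as GI50. TGI denotes the concentration required for complete inhibition of growth.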 Where a SMILES comes first, the peptide text is derived from it. [ ]: non-standard residue; d: D form. The star is where a group is joined. ξ: configuration not given here. X28 = COC1=CC(=O)N(C(=O)[C@@H](O*)C(C)C)[C@H]1Cc1ccccc1; X37 = O=C(OCc1ccccc1)[C@@H]1CCC[C@H]1N*; Fmoc = O=C(OCC1c2ccccc2-c2ccccc21)*; ξW = NC(Cc1c[nH]c2ccccc12)C(=O)O; NMeL = CN[C@@H](CC(C)C)C(=O)O; ξF = NC(Cc1ccccc1)C(=O)O; Hexanoyl = CCCCCC(=O)*; Boc = CC(C)(C)OC(=O)*; ξK = NCCCCC(N)C(=O)O; ξT = CC(O)C(N)C(=O)O; OBn = c1ccc(CO*)cc1; Bn = c1ccc(C*)cc1; tBu = CC(C)(C)*

Experiments:
Experiment in all cases: growth of human tumour cells (NCI), 48 h
T-47D breast = test system: T-47D breast
OVCAR-8 ovarian = test system: OVCAR-8 ovarian
TK-10 renal = test system: TK-10 renal
MOLT-4 leukemia = test system: MOLT-4 leukemia
SF-539 CNS = test system: SF-539 CNS
OVCAR-3 ovarian = test system: OVCAR-3 ovarian
HCT-116 colon = test system: HCT-116 colon
MDA-N = test system: MDA-N
SK-OV-3 ovarian = test system: SK-OV-3 ovarian
SK-MEL-28 melanoma = test system: SK-MEL-28 melanoma
A498 renal = test system: A498 renal
HCT-15 colon = test system: HCT-15 colon

Row | SMILES | TGI (T-47D breast) | TGI (OVCAR-8 ovarian) [µM] | TGI (TK-10 renal) [µM] | TGI (MOLT-4 leukemia) | TGI (SF-539 CNS) | TGI (OVCAR-3 ovarian) | TGI (HCT-116 colon) [µM] | TGI (MDA-N) [µM] | TGI (SK-OV-3 ovarian) | TGI (SK-MEL-28 melanoma) | TGI (A498 renal) | TGI (HCT-15 colon) | GI50 (T-47D breast) | GI50 (OVCAR-3 ovarian) | GI50 (HCT-116 colon) | GI50 (SK-OV-3 ovarian) | GI50 (SK-MEL-28 melanoma) | GI50 (A498 renal) | GI50 (HCT-15 colon)
1 | CCOC(=O)C1(C(=O)OCC)C[C@H]2CON=C2[C@@H]1c1ccc(C(F)(F)F)cc1 | 94.3 µM | > 100 | > 100 | > 100 µM | > 100 µM | > 100 µM | > 100 | > 100 | > 100 µM | > 100 µM | 99.3 µM | > 100 µM |  |  |  |  |  |  | 
2 | O=[N+]([O-])c1ccccc1S(=O)(=O)N1CCCc2cc(Cl)ccc21 | 96.5 µM | > 100 | > 100 | > 100 µM | 97.2 µM | > 100 µM | > 100 | > 48.2 | > 100 µM | > 100 µM | 76.1 µM | > 100 µM |  |  |  |  |  |  | 
3 | c1ccc(COc2nc3ccc(C45CC6CC(CC(C6)C4)C5)cc3[nH]2)cc1 | 34.1 µM | > 100 | > 72.5 | > 66.7 µM |  | > 100 µM | > 83.5 | 97 | > 100 µM | > 100 µM | > 100 µM | > 29.5 µM |  |  |  |  |  |  | 
4 | Cc1cc2nc3c(C#N)c(-c4ccccc4)/c(=C\Nc4cccc(C(F)(F)F)c4)c(=O)n3c2cc1C | > 100 µM | > 100 | > 100 |  | > 100 µM | 54.4 µM | > 100 | > 100 | > 100 µM | > 100 µM | > 100 µM | > 100 µM |  |  |  |  |  |  | 
5 | CCCCCC(=O)N[C@H](C(=O)N[C@H](C(=O)N(C)[C@@H](CC(C)C)C(=O)N1CCC[C@H]1C(=O)N1CCC[C@H]1C(=O)O[C@H](C(=O)N1C(=O)C=C(OC)[C@@H]1Cc1ccccc1)C(C)C)C(C)C)C(C)C (Hexanoyl-VV[NMeL]PP-X28) | > 100 µM | > 100 | > 100 | > 100 µM | > 100 µM | > 100 µM | > 100 | > 100 | > 100 µM | > 100 µM | > 100 µM | > 100 µM |  |  |  |  |  |  | 
6 | CC1(C(O)c2ccccc2)CN(C(C)(C)C)C(=O)/C1=C\Sc1ccccc1 (configuration not stated) | > 100 µM | > 100 | > 100 | > 100 µM | > 100 µM | > 100 µM | > 100 | > 100 | > 100 µM | > 100 µM | > 100 µM | > 100 µM |  |  |  |  |  |  | 
7 | CC1(c2cccc(C3CCC4(C=CC3=O)OCCO4)c2)OCCO1 (configuration not stated) | 23.5 µM | 30.9 | 20.3 | 12 µM | 28.5 µM | 13 µM | 13.2 | 25.2 | > 67.5 µM | 29.6 µM | 33.5 µM | 14.7 µM |  |  |  |  |  |  | 
8 | CC(=O)NC1C(OCC(=O)NC(C)C(=O)NC(CCC(=O)NCCCCCNc2ccc([N+](=O)[O-])c3[nH]c4ccccc4c(=O)c23)C(N)=O)C(O)C(CO)OC1(C)OCc1ccccc1 (configuration not stated) | > 50 µM | > 50 | > 50 | > 50 µM | > 50 µM | > 50 µM | > 50 | > 50 | > 50 µM |  | > 50 µM | > 50 µM |  |  |  |  |  |  | 
9 | C=C(C)C1CC2=C(C(=O)OC)C=C(O2)C(C(=C)C)[C@@H]2OC(=O)/C(=C\C1O)[C@H]2N(C)C (some centres not stated) | 45.9 µM | 25.8 | 15.7 | > 22.7 µM | 22.9 µM | 25.7 µM | 27.7 | 25.8 | 64.1 µM | 27.8 µM | 31.3 µM | 22.5 µM |  |  |  |  |  |  | 
10 | COc1ccc(N(C(=O)OC(C)(C)C)[C@@H]2C(C)=C[C@H]([S@@](=O)c3ccc(C)cc3)[C@@H]3C(=O)N(C)C(=O)[C@@H]32)cc1 | 99.8 µM | 46.7 | 43.4 | 94.6 µM | 43.5 µM | 80.8 µM | 35.9 | 40.8 | 30.3 µM | 41.3 µM | 29.3 µM | > 100 µM |  |  |  |  |  |  | 
11 | CC(OC(C)(C)C)C(NC(=O)C(CCCCNC(=O)OC(C)(C)C)NC(=O)C(Cc1c[nH]c2ccccc12)NC(=O)C(Cc1ccccc1)NC(=O)OCC1c2ccccc2-c2ccccc21)C(=O)NC(Cc1ccccc1)C(=O)N[C@@H]1CCC[C@H]1C(=O)OCc1ccccc1 (some centres not stated) (Fmoc-[ξF][ξW][ξK](Boc)[ξT](tBu)[ξF]-X37) | > 100 µM | > 100 | > 100 | > 100 µM | > 100 µM | > 100 µM | > 100 | > 100 | > 100 µM | > 100 µM |  | > 100 µM |  |  |  |  |  |  | 
12 | COc1ccc2cc(C(=O)NCCc3ccccc3)ccc2c1OC | > 100 µM | > 100 |  | > 100 µM | 70.3 µM | > 100 µM | > 100 | > 100 | > 100 µM | > 100 µM | > 100 µM | > 100 µM |  |  |  |  |  |  | 
13 | CC(=O)OCC1OC(n2c(-c3ccccc3)c(N=Nc3ccc(Cl)cc3)c(C)c(C#N)c2=S)C(OC(C)=O)C(OC(C)=O)C1OC(C)=O (configuration not stated) | 47.3 µM and > 100 µM |  | > 100 | 21.5 µM and > 100 µM | 43.7 µM and > 100 µM | 52.5 µM and > 100 µM | > 100 | > 100 | > 100 µM and 76.5 µM | 16.9 µM and > 100 µM | 43.5 µM and 70.7 µM | 29.1 µM and > 100 µM | 6.86 µM and 27.2 µM | 4.77 µM and 39.8 µM | 6.61 µM and 30.2 µM | 8.42 µM and 27.3 µM | 4.58 µM and 30.3 µM | 2.78 µM and 19.1 µM | 7.59 µM and 59.8 µM
14 | COc1cc(O)c(C(=O)/C=C/c2ccc(O)cc2)cc1Oc1ccc(C(=O)/C=C/c2ccc(O)cc2)c(O)c1 | 8.86 µM | 7.97 | 11.3 | > 100 µM | 5.51 µM | 8.14 µM | 4 | 12.1 | 9.15 µM | 4.11 µM | 5.68 µM | 3.68 µM |  |  |  |  |  |  | 
15 | Cc1ccc(S(=O)/C=C(\NC(=O)OCc2ccccc2)C(F)(F)F)cc1 (configuration not stated) | > 100 µM | > 100 | > 100 | > 100 µM | 92.9 µM | > 100 µM | > 100 | > 100 | > 100 µM | 72 µM |  | > 100 µM |  |  |  |  |  |  | 
16 | CC(C)CC(NC(=O)C(Cc1ccccc1)NC(=O)C(COCc1ccccc1)NC(=O)OC(C)(C)C)C(=O)OCc1ccccc1 (stereo not drawn) (Boc-Ser(Bn)-Phe-Leu-OBn; configuration not given here) | > 100 µM | 34.6 | > 100 | 33.4 µM | 72.3 µM | > 100 µM | 32.9 | > 100 | > 100 µM | 42 µM | > 100 µM | 76 µM |  |  |  |  |  |  | 
